{"source": "patent US11470846B2", "about": "“Herbicidal pyridino-/pyrimidino-thiazoles” (SYNGENTA PARTICIPATIONS AG, priority 2014, dated 2022)", "type_in_all_cases": "in vivo", "key": {"[1]": {"system": "Triticum aestivium (TRZAW)", "test": "Post-emergence herbicidal activity", "details": "post-emergence application, 1000 g/Ha, evaluated after 13 days, scale 0-5", "experimental": "(§1) B2 Post-Emergence Herbicidal Activity\n(§2) Seeds of a variety of test species were sown in standard soil in pots: Triticum aestivium (TRZAW), Oryza sativa (ORYSA), Avena fatua (AVEFA), Alopecurus myosuroides (ALOMY), Echinochloa crus-galli (ECHCG), Lolium perenne (LOLPE), Zea Mays (ZEAMX), Abutilon theophrasti (ABUTH), Amaranthus retroflexus (AMARE) and Setaria faberi (SETFA). After 8 days cultivation (post-emergence) under controlled conditions in a glasshouse (at 24/16° C., day/night; 14 hours light; 65% humidity), the plants were sprayed with an aqueous spray solution derived from the formulation of the technical active ingredient in acetone/water (50:50) solution containing 0.5% Tween 20 (polyoxyethelyene sorbitan monolaurate, CAS RN 9005-64-5). The test plants were then grown in a glasshouse under controlled conditions (at 24/16° C., day/night; 14 hours light; 65% humidity) and watered twice daily. After 13 days, the test was evaluated (5=total damage to plant; 0=no damage to plant)."}, "[2]": {"system": "Alopecurus myosuroides (ALOMY)", "test": "Post-emergence herbicidal activity", "details": "post-emergence application, 1000 g/Ha, evaluated after 13 days, scale 0-5", "experimental": "as §1, §2"}, "Avena fatua (AVEFA) [3]": {"system": "Avena fatua (AVEFA)", "test": "Post-emergence herbicidal activity", "details": "post-emergence application, 1000 g/Ha, evaluated after 13 days, scale 0-5", "experimental": "as §1, §2"}, "[4]": {"system": "Echinochloa crus-galli (ECHCG)", "test": "Post-emergence herbicidal activity", "details": "post-emergence application, 1000 g/Ha, evaluated after 13 days, scale 0-5; Table 7", "experimental": "as §1, §2"}, "Oryza sativa (ORYSA) [5]": {"system": "Oryza sativa (ORYSA)", "test": "Post-emergence herbicidal activity", "details": "post-emergence application, 1000 g/Ha, evaluated after 13 days, scale 0-5", "experimental": "as §1, §2"}, "Lolium perenne (LOLPE) [6]": {"system": "Lolium perenne (LOLPE)", "test": "Post-emergence herbicidal activity", "details": "post-emergence application, 1000 g/Ha, evaluated after 13 days, scale 0-5; Table 7", "experimental": "as §1, §2"}, "[7]": {"system": "Triticum aestivium (TRZAW)", "test": "Pre-emergence herbicidal activity", "details": "pre-emergence application, 1000 g/Ha, evaluated after 13 days, scale 0-5", "experimental": "(§3) B1 Pre-Emergence Herbicidal Activity\nas §2, with “After” for “After 8 days”, “for one day (pre-emergence)” for “(post-emergence)”"}, "[8]": {"system": "Alopecurus myosuroides (ALOMY)", "test": "Pre-emergence herbicidal activity", "details": "pre-emergence application, 1000 g/Ha, evaluated after 13 days, scale 0-5", "experimental": "as §3\nas §2, with “After” for “After 8 days”, “for one day (pre-emergence)” for “(post-emergence)”"}, "Avena fatua (AVEFA) [9]": {"system": "Avena fatua (AVEFA)", "test": "Pre-emergence herbicidal activity", "details": "pre-emergence application, 1000 g/Ha, evaluated after 13 days, scale 0-5", "experimental": "as §3\nas §2, with “After” for “After 8 days”, “for one day (pre-emergence)” for “(post-emergence)”"}, "[10]": {"system": "Echinochloa crus-galli (ECHCG)", "test": "Pre-emergence herbicidal activity", "details": "pre-emergence application, 1000 g/Ha, evaluated after 13 days, scale 0-5; Table 5", "experimental": "as §3\nas §2, with “After” for “After 8 days”, “for one day (pre-emergence)” for “(post-emergence)”"}, "Oryza sativa (ORYSA) [11]": {"system": "Oryza sativa (ORYSA)", "test": "Pre-emergence herbicidal activity", "details": "pre-emergence application, 1000 g/Ha, evaluated after 13 days, scale 0-5", "experimental": "as §3\nas §2, with “After” for “After 8 days”, “for one day (pre-emergence)” for “(post-emergence)”"}, "Lolium perenne (LOLPE) [12]": {"system": "Lolium perenne (LOLPE)", "test": "Pre-emergence herbicidal activity", "details": "pre-emergence application, 1000 g/Ha, evaluated after 13 days, scale 0-5; Table 5", "experimental": "as §3\nas §2, with “After” for “After 8 days”, “for one day (pre-emergence)” for “(post-emergence)”"}}, "data": [{"smiles": "Cc1nc(-c2cncc(C#N)c2)sc1N(C)C(=O)OC(C)(C)C", "note": "[Compound A7]", "values": [{"measurement": "Control of weed species, TRZAW (damage score)", "setting": "[1]", "result": 2}, {"measurement": "Control of weed species, ALOMY (damage score)", "setting": "[2]", "result": 1}, {"measurement": "Control of weed species, AVEFA (damage score)", "setting": "Avena fatua (AVEFA) [3]", "result": 4}, {"measurement": "Control of weed species, ECHCG (damage score)", "setting": "[4]", "result": 5}, {"measurement": "Control of weed species, ORYSA (damage score)", "setting": "Oryza sativa (ORYSA) [5]", "result": 1}, {"measurement": "Control of weed species, LOLPE (damage score)", "setting": "Lolium perenne (LOLPE) [6]", "result": 3}, {"measurement": "Control of weed species, TRZAW (damage score)", "setting": "[7]", "result": 1}, {"measurement": "Control of weed species, ALOMY (damage score)", "setting": "[8]", "result": 1}, {"measurement": "Control of weed species, AVEFA (damage score)", "setting": "Avena fatua (AVEFA) [9]", "result": 4}, {"measurement": "Control of weed species, ECHCG (damage score)", "setting": "[10]", "result": 2}, {"measurement": "Control of weed species, ORYSA (damage score)", "setting": "Oryza sativa (ORYSA) [11]", "result": 1}, {"measurement": "Control of weed species, LOLPE (damage score)", "setting": "Lolium perenne (LOLPE) [12]", "result": 2}]}, {"smiles": "Cc1nc(-c2cncc(C(N)=O)c2)sc1N(C)C(=O)OC(C)(C)C", "note": "[Compound A8]", "values": [{"measurement": "Control of weed species, TRZAW (damage score)", "setting": "[1]", "result": 2}, {"measurement": "Control of weed species, ALOMY (damage score)", "setting": "[2]", "result": 1}, {"measurement": "Control of weed species, AVEFA (damage score)", "setting": "Avena fatua (AVEFA) [3]", "result": 2}, {"measurement": "Control of weed species, ECHCG (damage score)", "setting": "[4]", "result": 3}, {"measurement": "Control of weed species, ORYSA (damage score)", "setting": "Oryza sativa (ORYSA) [5]", "result": 1}, {"measurement": "Control of weed species, LOLPE (damage score)", "setting": "Lolium perenne (LOLPE) [6]", "result": 0}, {"measurement": "Control of weed species, TRZAW (damage score)", "setting": "[7]", "result": 0}, {"measurement": "Control of weed species, ALOMY (damage score)", "setting": "[8]", "result": 0}, {"measurement": "Control of weed species, AVEFA (damage score)", "setting": "Avena fatua (AVEFA) [9]", "result": 0}, {"measurement": "Control of weed species, ECHCG (damage score)", "setting": "[10]", "result": 0}, {"measurement": "Control of weed species, ORYSA (damage score)", "setting": "Oryza sativa (ORYSA) [11]", "result": 0}, {"measurement": "Control of weed species, LOLPE (damage score)", "setting": "Lolium perenne (LOLPE) [12]", "result": 0}]}, {"smiles": "Cc1nc(-c2cncc(S(C)(=O)=O)c2)sc1N(C)C(=O)OC(C)(C)C", "note": "[Compound A9]", "values": [{"measurement": "Control of weed species, TRZAW (damage score)", "setting": "[1]", "result": 2}, {"measurement": "Control of weed species, ALOMY (damage score)", "setting": "[2]", "result": 1}, {"measurement": "Control of weed species, AVEFA (damage score)", "setting": "Avena fatua (AVEFA) [3]", "result": 2}, {"measurement": "Control of weed species, ECHCG (damage score)", "setting": "[4]", "result": 2}, {"measurement": "Control of weed species, ORYSA (damage score)", "setting": "Oryza sativa (ORYSA) [5]", "result": 1}, {"measurement": "Control of weed species, LOLPE (damage score)", "setting": "Lolium perenne (LOLPE) [6]", "result": 1}, {"measurement": "Control of weed species, TRZAW (damage score)", "setting": "[7]", "result": 0}, {"measurement": "Control of weed species, ALOMY (damage score)", "setting": "[8]", "result": 0}, {"measurement": "Control of weed species, AVEFA (damage score)", "setting": "Avena fatua (AVEFA) [9]", "result": 0}, {"measurement": "Control of weed species, ECHCG (damage score)", "setting": "[10]", "result": 0}, {"measurement": "Control of weed species, ORYSA (damage score)", "setting": "Oryza sativa (ORYSA) [11]", "result": 0}, {"measurement": "Control of weed species, LOLPE (damage score)", "setting": "Lolium perenne (LOLPE) [12]", "result": 0}]}, {"smiles": "Cc1nc(-c2cncc(C(F)(F)F)c2)sc1N(C)C(=O)OC(C)(C)C", "note": "[Compound A10]", "values": [{"measurement": "Control of weed species, TRZAW (damage score)", "setting": "[1]", "result": 1}, {"measurement": "Control of weed species, ALOMY (damage score)", "setting": "[2]", "result": 0}, {"measurement": "Control of weed species, AVEFA (damage score)", "setting": "Avena fatua (AVEFA) [3]", "result": 2}, {"measurement": "Control of weed species, ECHCG (damage score)", "setting": "[4]", "result": 4}, {"measurement": "Control of weed species, ORYSA (damage score)", "setting": "Oryza sativa (ORYSA) [5]", "result": 1}, {"measurement": "Control of weed species, LOLPE (damage score)", "setting": "Lolium perenne (LOLPE) [6]", "result": 0}, {"measurement": "Control of weed species, TRZAW (damage score)", "setting": "[7]", "result": 1}, {"measurement": "Control of weed species, ALOMY (damage score)", "setting": "[8]", "result": 0}, {"measurement": "Control of weed species, AVEFA (damage score)", "setting": "Avena fatua (AVEFA) [9]", "result": 1}, {"measurement": "Control of weed species, ECHCG (damage score)", "setting": "[10]", "result": 1}, {"measurement": "Control of weed species, ORYSA (damage score)", "setting": "Oryza sativa (ORYSA) [11]", "result": 1}, {"measurement": "Control of weed species, LOLPE (damage score)", "setting": "Lolium perenne (LOLPE) [12]", "result": 1}]}, {"smiles": "Cc1nc(-c2cncc(N)c2)sc1N(C)C(=O)OC(C)(C)C", "note": "[Compound A11]", "values": [{"measurement": "Control of weed species, TRZAW (damage score)", "setting": "[1]", "result": 2}, {"measurement": "Control of weed species, ALOMY (damage score)", "setting": "[2]", "result": 1}, {"measurement": "Control of weed species, AVEFA (damage score)", "setting": "Avena fatua (AVEFA) [3]", "result": 1}, {"measurement": "Control of weed species, ECHCG (damage score)", "setting": "[4]", "result": 2}, {"measurement": "Control of weed species, ORYSA (damage score)", "setting": "Oryza sativa (ORYSA) [5]", "result": 1}, {"measurement": "Control of weed species, LOLPE (damage score)", "setting": "Lolium perenne (LOLPE) [6]", "result": 1}, {"measurement": "Control of weed species, TRZAW (damage score)", "setting": "[7]", "result": 2}, {"measurement": "Control of weed species, ALOMY (damage score)", "setting": "[8]", "result": 1}, {"measurement": "Control of weed species, AVEFA (damage score)", "setting": "Avena fatua (AVEFA) [9]", "result": 1}, {"measurement": "Control of weed species, ECHCG (damage score)", "setting": "[10]", "result": 2}, {"measurement": "Control of weed species, ORYSA (damage score)", "setting": "Oryza sativa (ORYSA) [11]", "result": 2}, {"measurement": "Control of weed species, LOLPE (damage score)", "setting": "Lolium perenne (LOLPE) [12]", "result": 0}]}, {"smiles": "Cc1nc(-c2cncc(F)c2)sc1NC(=O)OC(C)(C)C", "note": "[Compound A35, tert-butyl N-[2-(5-fluoro-3-pyridyl)-4-methyl-thiazol-5-yl]carbamate]", "values": [{"measurement": "Control of weed species, TRZAW (damage score)", "setting": "[1]", "result": 1}, {"measurement": "Control of weed species, ALOMY (damage score)", "setting": "[2]", "result": 0}, {"measurement": "Control of weed species, AVEFA (damage score)", "setting": "Avena fatua (AVEFA) [3]", "result": 1}, {"measurement": "Control of weed species, ECHCG (damage score)", "setting": "[4]", "result": 2}, {"measurement": "Control of weed species, ORYSA (damage score)", "setting": "Oryza sativa (ORYSA) [5]", "result": 0}, {"measurement": "Control of weed species, LOLPE (damage score)", "setting": "Lolium perenne (LOLPE) [6]", "result": 0}]}, {"smiles": "Cc1nc(-c2cccnc2)sc1N(C)C(=O)Oc1ccc([N+](=O)[O-])cc1", "note": "[Compound A61, (4-nitrophenyl) N-methyl-N-[4-methyl-2-(3-pyridyl)thiazol-5-yl]carbamate]", "values": [{"measurement": "Control of weed species, TRZAW (damage score)", "setting": "[1]", "result": 1}, {"measurement": "Control of weed species, ALOMY (damage score)", "setting": "[2]", "result": 0}, {"measurement": "Control of weed species, AVEFA (damage score)", "setting": "Avena fatua (AVEFA) [3]", "result": 2}, {"measurement": "Control of weed species, ECHCG (damage score)", "setting": "[4]", "result": 1}, {"measurement": "Control of weed species, ORYSA (damage score)", "setting": "Oryza sativa (ORYSA) [5]", "result": 0}, {"measurement": "Control of weed species, LOLPE (damage score)", "setting": "Lolium perenne (LOLPE) [6]", "result": 1}]}]}
